The values that follow come from patent US11458152B2, “Use of agarobiose or agarooligosaccharide having anticariogenic activity” (Korea University Research and Business Foundation, priority 2016, dated 2022).

In test [1] the test system is Streptococcus mutans. Nature of the test: Acid production of Streptococcus mutans under mixed carbon source condition, extracellular glucose and lactic acid by HPLC (Example 8). Format: cell-based, Streptococcus mutans ATCC 25175. The procedure:
(§1) A strain used in the present experiment was Streptococcus mutans ATCC 25175. Streptococcus mutans ATCC 25175 was pre-cultured in a brain-heart infusion (BHI) medium for 8 hours, and was washed twice with a 2 mM potassium phosphate buffer, and then main-cultured in a minimal medium prepared with reference to a previously reported document (Fujiwara et al (1978) Arch Oral Biol. 23, 601-602) at 37° C. The minimal medium contains, in a 50 mM Tris-HCl buffer (pH 7.4), 2 g/L of L-glutamic acid, 0.2 g/L of cysteine hydrochloride, 0.9 g/L of L-leucine, 1 g/L of ammonium chloride, 3.5 g/L of potassium hydrogen phosphate, 1.5 g/L of potassium dihydrogen phosphate, 4.2 g/L of sodium hydrogen carbonate, 1.2 g/L of magnesium sulfate heptahydrate, 0.02 g/L of manganese chloride tetrahydrate, 0.02 g/L of iron sulfate heptahydrate, 0.6 g/L of sodium pyruvate, 1 mg/L of riboflavin, 0.5 mg/L of thiamine hydrochloride, 0.1 mg/L of biotin, 1 mg/L of nicotinic acid, 0.1 mg/L of p-aminobenzoic acid, 0.5 mg/L of calcium pantothenate, and 1 mg/L of pyridoxine hydrochloride.
To confirm an effect of agarobiose, agarooligosaccharides, xylitol, or neoagarobiose on acid production of Streptococcus mutans, Streptococcus mutans were cultured, using the method of Example 5, in 200 μl of a minimal medium containing 10 g/L of glucose and 0 g/L, 2.5 g/L, 5 g/L, 10 g/L, or 20 g/L of agarobiose, agarooligosaccharides, or neoagarobiose, or 0 g/L, 5 g/L, 10 g/L, or 20 g/L of xylitol in a 96-well plate. After 14 hours, concentrations of extracellular glucose and produced lactic acid were measured by HPLC. A column used for HPLC analysis was Aminex HPX-87H. 0.01 N of sulfuric acid as a mobile phase was flowed at a rate of 0.5 mL/min and 65° C.

For test [2], the system named is Streptococcus mutans. Description: Growth inhibition of Streptococcus mutans under mixed carbon source condition, absorbance at 600 nm (Example 7). Format: cell-based, Streptococcus mutans ATCC 25175. The procedure:
as §1, with “hydrochloride. Streptococcus mutans was cultured, using the method of Example 5, in 200 μl of a minimal medium containing 10 g/L of glucose and agarobiose, agarooligosaccharides, xylitol, or neoagarobiose at various concentrations in a 96-well plate, and growth inhibitory effects thereof were observed by measuring absorbance at a wavelength of 600 nm over time. The treated concentrations of agarobiose, agarooligosaccharides, xylitol, and neoagarobiose were between 0 g/L and 20 g/L.” for “hydrochloride.”

The subject of test [3] is Streptococcus mutans. Nature of the test: Growth of Streptococcus mutans under single carbon source condition (Example 6). Type of test: cell-based, Streptococcus mutans ATCC 25175. The settings on record: 10 g/L as single carbon source in minimal medium, cultured 14 hours. The procedure: as §1, with “hydrochloride. To verify an effect of inhibiting the growth of Streptococcus mutans under a single carbon source condition, Streptococcus mutans were cultured in a minimal medium containing each of 10 g/L of agarobiose, agarooligosaccharides, glucose, xylitol, and neoagarobiose and a carbon source-free minimal medium. They were main-cultured using the method of Example 5 for 14 hours, and a degree of the cell growth was measured by measuring the absorbance of a culture solution at a wavelength of 600 nm every two hours.” for “hydrochloride.”

Test [4] relates to Streptococcus mutans. The settings on record: literature (Trahan L et al); cited from earlier work.
[5] abbreviates: 2.5 g/L in 10 g/L glucose, 14 hours.
[6] abbreviates: 10 g/L in 10 g/L glucose, 14 hours.
Setting [7] is: 20 g/L in 10 g/L glucose, 14 hours.
Where [8] appears, read: mixed carbon source, 10 g/L glucose.

Some results are limits rather than exact numbers.

Take `OC[C@H]1O[C@@H](O[C@H]2[C@H]3OC[C@@H]2OC(O)[C@H]3O)[C@H](O)[C@@H](O)[C@H]1O` (mixture of isomers) [agarobiose]: in the test on Streptococcus mutans [1] (setting [5]), the “concentration of consumed glucose” value was determined as 6.78 g/L, the “concentration of produced lactic acid” value is reported as 5.65 g/L, the “decrease of consumed glucose compared to 0 g/L” value (“decrease of consumed glucose” below) is recorded as 19% and the “decrease of produced lactic acid compared to 0 g/L” value (“decrease of produced lactic acid” for short) was found to be 32%. In the test with Streptococcus mutans [1] (5 g/L in 10 g/L glucose), the “degree of inhibition of acid production compared with 10 g/L of xylitol” value is “greater”. For the same compound, in the test with Streptococcus mutans [1] (setting [6]), the “amount of consumed glucose” value is recorded as 4.05 g/L, the “amount of produced lactic acid” value was 3.25 g/L, the “decrease of consumed glucose” value turned out to be 51.5% and the “decrease of produced lactic acid” value is 60%. In the test with Streptococcus mutans [1] (setting [7]), the “decrease of consumed glucose” value was determined as 58.76% and the “decrease of produced lactic acid” value is 68%. Further, in the test on Streptococcus mutans [2] (2.5 g/L in 10 g/L glucose), the “absorbance value after 14 hours of culture” value stood at 0.55. Moreover, the “degree of inhibition of growth compared with 10 g/L of xylitol” value in the test on Streptococcus mutans [2] (5 g/L in 10 g/L glucose) is “greater”. For the same compound, the “effect on inhibiting the growth of Streptococcus mutans compared with xylitol” value in the test on Streptococcus mutans [2] (same concentration, 10 g/L glucose) was “greater”. For the same compound, the “final absorbance value compared with xylitol” value in the test with Streptococcus mutans [2] (same concentration, after 14 hours of culture, 10 g/L glucose) is “lower”. Further, the “growth of Streptococcus mutans” value with Streptococcus mutans [3] is recorded as “no growth”.
As to `OC[C@H]1OC(O)[C@H](O)[C@@H](O[C@@H]2O[C@H]3CO[C@@H]([C@@H]2O)[C@@H]3O)[C@H]1O` (stereo partly shown) [neoagarobiose, reference compound], the “inhibition of acid production of Streptococcus mutans” value with Streptococcus mutans [1] (setting [8]) was “unable to inhibit”. Besides, in the test on Streptococcus mutans [1] (up to 20 g/L in 10 g/L glucose), the “amount of consumed glucose compared to 0 g/L” value was “did not exhibit significant differences” and the “amount of produced lactic acid compared to 0 g/L” value was “did not exhibit significant differences”. For the same compound, the “inhibition of the growth of Streptococcus mutans” value with Streptococcus mutans [2] (setting [8]) is “unable to inhibit”. In the test on Streptococcus mutans [2] (up to 20 g/L in 10 g/L glucose), the “final absorbance value compared to 0 g/L” value is reported as “did not exhibit significant differences”. For the same compound, the “change in the growth of Streptococcus mutans” value in the test on Streptococcus mutans [2] (up to 20 g/L, minimal medium containing 10 g/L glucose) is “no significant change”. For the same compound, the “growth of Streptococcus mutans” value in the test on Streptococcus mutans [3] is listed as “no growth”.
For `OC[C@@H](O)[C@H](O)[C@@H](O)CO` [xylitol, reference compound], the “concentration needed to inhibit the growth of Streptococcus mutans” value with Streptococcus mutans [4] is recorded as at least 10 g/L. For the same compound, the “decrease of produced lactic acid” value with Streptococcus mutans [1] (5 g/L in 10 g/L glucose, 14 hours) is recorded as 30%; in the test with Streptococcus mutans [1] (setting [6]), 35%; in the test on Streptococcus mutans [1] (setting [7]) it was 35%. Further, the “decrease of consumed glucose” value is recorded as 23.98% in the test with Streptococcus mutans [1] (setting [6]) and 36.41% in the test on Streptococcus mutans [1] (setting [7]). Further, the “absorbance value at 600 nm after culturing for 14 hours” value with Streptococcus mutans [2] (20 g/L in 10 g/L glucose) is listed as 0.595. Moreover, the “growth of Streptococcus mutans” value in the test with Streptococcus mutans [3] is listed as “no growth”.
